Here are results for ten molecules from patent US11535610B2, “Acid addition salts of benzimidazole derivative” (HK INNO.N CORPORATION, priority 2016, dated 2022).

Read-outs that look alike come from different tables or passages of the source.

Data set [1] can be described thus: Comparative test on solid-phase stability (Karl Fischer, HPLC). It counts as physicochemical. To be noted: for Total impurities (%), 1 month elapsed / Total impurities (%), Initial: HPLC area %; for Total impurities (%), 1 month elapsed / Moisture (%), 1 month elapsed: PE-bag, 75% RH, one month; for Moisture (%), 1 month elapsed / Moisture (%), Initial: Karl Fischer.

Data set [2] can be described thus: Comparative test on liquid-phase stability (HPLC, degradation product of formula 4). It counts as physicochemical. As to conditions: for Concentration (%) of degradation product (compound of the formula 4), Initial / Concentration (%) of degradation product (compound of the formula 4), 1 day (24 hours) elapsed: 20 mg/ml.
Data set [3] in a line: Comparative test on solubility of amorphous acid addition salts (supersaturation method). As to conditions: room temperature, solubility of acid addition salt per se, not converted to free base; for solubility: water, thermodynamic from solid, Water solubility.
Data set [4] in a line: Comparative test on precipitation stability in pH 6.8 buffer. As to conditions: 10 mg/ml in buffer solution of pH 6.8, stored at 37° C. for 24 hours. It is filed as physicochemical.
Data set [5] in a line: Water solubility at room temperature of 1:1 co-crystals of the compound of the formula 1 with co-crystal formers. As to conditions: co-crystal at 1:1 molar ratio with compound of the formula 1.

As a reminder, the solubility is the dissolved amount per volume that the medium holds. For the molecule `Cc1nc2c(O[C@H]3CCOc4cc(F)cc(F)c43)cc(C(=O)N(C)C)cc2[nH]1`, in data set [1], the “Concentration of degradation products (%), Initial” value (“Concentration … (%), Initial” for short) is on record as 0.04%; the “Total impurities (%), 1 month elapsed” value is listed as 0.06%; the “Total impurities (%), Initial” value is given as 0.06%; the “Moisture (%), 1 month elapsed” value was found to be 0.1%. Further, the “Moisture (%), Initial” value in data set [1] is reported as 0.1%. Besides, in data set [1] (1 month), the “Concentration of degradation products (%), 1 month elapsed” value (“Concentration … (%), 1 month elapsed” for short) was 0.04%. In data set [2], the “Concentration (%) of degradation product (compound of the formula 4), Initial” value is listed as 0.03% and the “Concentration (%) of degradation product (compound of the formula 4), 1 day (24 hours) elapsed” value is on record as 0.07%. In addition, the solubility in data set [3] is ≥ 50000 µg/mL. In data set [4], the “Soil precipitation or not” value is “a homogenous solution was maintained”.
`O=S(=O)(O)c1cccc2c(S(=O)(=O)O)cccc12` [1.5-naphinalenedisulfonic acid]: the Water solubility in data set [3] is 2500 µg/mL.
On to `Cc1nc2c(OC3CCOc4cc(F)cc(F)c43)cc(C(=O)N(C)C)cc2[nH]1` (centres unmarked) [Amorphous free base], for which the solubility in data set [3] turned out to be 3000 µg/mL.
In the case of `C[C@H](N)C(=O)O` [L-Alanine], the Water-solubility in data set [5] came to 4000 µg/mL.
For the molecule `NCCCC[C@H](N)C(=O)O` [L-Lysine], the Water-solubility in data set [5] amounted to 8000 µg/mL.
The same measure, in the same setting: as for `CC(C)[C@H](N)C(=O)O` [L-Valine], the figure is 3000 µg/mL.
Still for that read-out and setting: as for `CC(C)C[C@H](N)C(=O)O` [L-leucine], the figure is 12000 µg/mL.
Take `O=C1CC[C@@H](C(=O)O)N1` [L-pyroglutamic acid]: in data set [1], the “Concentration … (%), Initial” value is 0.02%; the “Total impurities (%), 1 month elapsed” value is 0.07%; the “Total impurities (%), Initial” value stood at 0.07%; the “Moisture (%), 1 month elapsed” value is listed as 0.1%. For the same molecule, the “Moisture (%), Initial” value in data set [1] is given as 0.1%. Besides, the “Concentration … (%), 1 month elapsed” value in data set [1] (1 month) is 0.02%. Moreover, in data set [2], the “Concentration (%) of degradation product (compound of the formula 4), Initial” value came to 0.02% and the “Concentration (%) of degradation product (compound of the formula 4), 1 day (24 hours) elapsed” value is recorded as 0.05%. Moreover, in data set [4], the “Soil precipitation or not” value is listed as “a homogenous solution was maintained”.
On to `Cc1ccc(S(=O)(=O)O)cc1` [p-toluenesulfonic acid], for which, in data set [3], the Water solubility worked out at 27000 µg/mL.
On to Fumaric acid, for which, in data set [1], the “Concentration … (%), 1 month elapsed” value worked out at 0.12%; the “Concentration … (%), Initial” value is 0.09%; the “Total impurities (%), 1 month elapsed” value stood at 0.43%; the “Total impurities (%), Initial” value was 0.14%. Moreover, in data set [1], the “Moisture (%), 1 month elapsed” value came out at 0.3% and the “Moisture (%), Initial” value is reported as 0.1%. Moreover, in data set [2] (20 mg/ml in purified water, stirred at 40° C.), the “physical state of the solution (homogenous liquid-phase state or gel)” value was “formed a sticky gel”. The “Soil precipitation or not” value in data set [4] was “Precipitated”. Moreover, the “Soil precipitation or not” value in data set [4] (listed as fumaric acid) is on record as “a solid was precipitated”.
